Data from the supplement of paper PMC13380429.

Legend:
Details in all cases: 72 h
Caco-2 [1] = assay: cell viability relative to DMSO; higher = less toxic
Calu-3 [2] = assay: as above
HepG2 [3] = assay: as above
U2OS [4] = assay: as above
Vero E6 [5] = assay: as above
Caco-2 [6] = assay: relative viability EC50 (midpoint between 100% and the lowest measured viability); higher = less toxic
Calu-3 [7] = assay: as above
HepG2 [8] = assay: as above
U2OS [9] = assay: as above
Vero E6 [10] = assay: as above
Caco-2 [11] = assay: drug sensitivity score (DSS) for viability; higher = more toxic; extreme values may be limits of the assay
Calu-3 [12] = assay: as above
HepG2 [13] = assay: as above
U2OS [14] = assay: as above
Vero E6 [15] = assay: as above

Compound | cell viability (Caco-2 [1]; 1 nM) [%] | cell viability (Caco-2 [1]; 10 nM) [%] | cell viability (Caco-2 [1]; 100 nM) [%] | cell viability (Caco-2 [1]; 1000 nM) [%] | cell viability (Caco-2 [1]; 10000 nM) [%] | cell viability (Calu-3 [2]; 1 nM) [%] | cell viability (Calu-3 [2]; 10 nM) [%] | cell viability (Calu-3 [2]; 100 nM) [%] | cell viability (Calu-3 [2]; 1000 nM) [%] | cell viability (Calu-3 [2]; 10000 nM) [%] | cell viability (HepG2 [3]; 1 nM) [%] | cell viability (HepG2 [3]; 10 nM) [%] | cell viability (HepG2 [3]; 100 nM) [%] | cell viability (HepG2 [3]; 1000 nM) [%] | cell viability (HepG2 [3]; 10000 nM) [%] | cell viability (U2OS [4]; 1 nM) [%] | cell viability (U2OS [4]; 10 nM) [%] | cell viability (U2OS [4]; 100 nM) [%] | cell viability (U2OS [4]; 1000 nM) [%] | cell viability (U2OS [4]; 10000 nM) [%] | cell viability (Vero E6 [5]; 1 nM) [%] | cell viability (Vero E6 [5]; 10 nM) [%] | cell viability (Vero E6 [5]; 100 nM) [%] | cell viability (Vero E6 [5]; 1000 nM) [%] | cell viability (Vero E6 [5]; 10000 nM) [%] | relative viability EC50 (Caco-2 [6]) [µM] | relative viability EC50 (Calu-3 [7]) [µM] | relative viability EC50 (HepG2 [8]) [µM] | relative viability EC50 (U2OS [9]) [µM] | relative viability EC50 (Vero E6 [10]) [µM] | drug sensitivity score (Caco-2 [11]) | drug sensitivity score (Calu-3 [12]) | drug sensitivity score (HepG2 [13]) | drug sensitivity score (U2OS [14]) | drug sensitivity score (Vero E6 [15])
CCc1ccc(Cc2ccc3c(c2)[C@]2(OC3)O[C@H](CO)[C@@H](O)[C@H](O)[C@H]2O)cc1 [tofogliflozin] | 97.8 | 98.5 | 86.1 | 97 | 90.5 | 90.9 | 92.7 | 108 | 103 | 108 | 106 | 94.3 | 102 | 105 | 95.5 | 97.9 | 96.9 | 97.5 | 98 | 95.5 | 93.9 | 95.6 | 99.4 | 94.6 | 98.4 | > 10 | > 10 | > 10 | > 10 | > 10 | 0 | 0 | 0 | 0 | 0
CCCCC/C=C\C=C\CCCCCCCCC(=O)O [trans-10,cis-12-conjugated-linoleic-acid] | 94.9 | 101 | 96.6 | 101 | 99.6 | 102 | 96.1 | 100 | 96.2 | 101 | 107 | 92 | 90.8 | 101 | 100 | 97.8 | 96.8 | 103 | 97.4 | 102 | 109 | 108 | 102 | 102 | 99.1 | > 10 | > 10 | > 10 | > 10 | > 10 | 0 | 0 | 0 | 0 | 0
CCOC1O[C@H]([C@@H](COCc2ccccc2)OCc2ccccc2)[C@H](OCc2ccccc2)[C@H]1O (stereo not given in full) [tribenoside] | 93 | 96.2 | 90.3 | 95.6 | 94 | 93.5 | 94.6 | 102 | 105 | 106 | 91.4 | 104 | 93.6 | 92.6 | 94.2 | 93.9 | 96.3 | 101 | 97.3 | 98 | 91.6 | 94.8 | 91.6 | 93.7 | 111 | > 10 | > 10 | > 10 | > 10 | > 10 | 0 | 0 | 0 | 0 | 0
